Laboratory results published in ChEMBL document CHEMBL1132014, “Novel 1,2,3,4-tetrahydroisoquinolines with high affinity and selectivity for the dopamine D3 receptor” (Bioorg Med Chem Lett, 1999).

Key:
[1] = molecular target: T1, D(2) dopamine receptor (Homo sapiens, UniProt P14416); test: Displacement [125I]iodosulpiride from human Dopamine receptor D2 expressed in CHO cells; assay type: cell-based
[2] = molecular target: T2, D(3) dopamine receptor (Homo sapiens, UniProt P35462); test: Displacement of [125I]iodosulpiride from human Dopamine receptor D3 expressed in CHO cells; assay type: cell-based
T2 sequence (P35462 whole entry): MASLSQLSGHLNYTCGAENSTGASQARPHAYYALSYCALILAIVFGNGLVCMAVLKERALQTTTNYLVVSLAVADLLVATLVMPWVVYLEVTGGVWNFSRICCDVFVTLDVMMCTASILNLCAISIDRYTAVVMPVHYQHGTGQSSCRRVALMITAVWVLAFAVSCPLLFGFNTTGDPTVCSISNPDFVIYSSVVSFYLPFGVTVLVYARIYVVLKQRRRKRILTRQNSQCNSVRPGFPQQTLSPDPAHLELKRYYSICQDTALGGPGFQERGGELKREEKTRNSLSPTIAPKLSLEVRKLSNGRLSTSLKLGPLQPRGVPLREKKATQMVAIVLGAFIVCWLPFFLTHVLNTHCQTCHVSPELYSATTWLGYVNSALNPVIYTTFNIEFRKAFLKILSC

[3] = Pharmacokinetic property (blood clearance) in rat; assay type: ADME, organism-based
[4] = Half life in rat; assay type: ADME, organism-based; conditions: in vivo
[5] = molecular target: T1, D(2) dopamine receptor; test: In vitro functional antagonist effect by its affinity to bind to Dopamine receptor D2
[6] = molecular target: T2, D(3) dopamine receptor; test: In vitro functional antagonist effect by its affinity to bind to Dopamine receptor D3
[7] = Pharmacokinetic property (CLb)of the compound was determined in rat; assay type: ADME, organism-based; conditions: blood, read-out: CLb

T1 sequence (P14416 whole entry): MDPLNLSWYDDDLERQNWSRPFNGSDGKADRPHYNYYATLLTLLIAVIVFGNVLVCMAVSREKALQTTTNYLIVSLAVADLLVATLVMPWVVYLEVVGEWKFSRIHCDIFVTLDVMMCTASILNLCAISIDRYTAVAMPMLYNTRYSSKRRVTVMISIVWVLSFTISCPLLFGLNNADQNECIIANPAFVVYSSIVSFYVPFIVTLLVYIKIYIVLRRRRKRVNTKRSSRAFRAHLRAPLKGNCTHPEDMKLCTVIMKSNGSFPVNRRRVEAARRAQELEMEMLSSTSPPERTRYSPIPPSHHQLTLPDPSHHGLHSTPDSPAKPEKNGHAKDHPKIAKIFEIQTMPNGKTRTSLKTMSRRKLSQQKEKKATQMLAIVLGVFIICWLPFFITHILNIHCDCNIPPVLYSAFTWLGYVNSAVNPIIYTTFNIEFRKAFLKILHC

| SMILES | Ki [1] [nM] | Ki [2] [nM] | other results |
| --- | --- | --- | --- |
| O=C(NCCCCN1CCc2ccc(OS(=O)(=O)C(F)(F)F)cc2C1)c1ccc(-c2ccc(N3CCCC3=O)cc2)cc1 | 126 | 2.51 |  |
| O=C(/C=C/c1ccc2ccccc2c1)NCCCCN1CCc2ccc(OS(=O)(=O)C(F)(F)F)cc2C1 | 1000 | 5.01 |  |
| Cc1ccccc1-c1ccc(C(=O)NCCCCN2CCc3ccc(OS(=O)(=O)C(F)(F)F)cc3C2)cc1 | 1580 | 50.1 |  |
| O=C(/C=C\c1ccccc1)NCCCCN1CCc2ccc(OS(=O)(=O)C(F)(F)F)cc2C1 | 316 | 39.8 |  |
| O=C(NCCCCN1CCc2ccc(OS(=O)(=O)C(F)(F)F)cc2C1)c1cccc(-c2ccccc2)c1 | 501 | 126 |  |
| O=C(/C=C/c1ccc2[nH]ccc2c1)NCCCCN1CCc2ccc(OS(=O)(=O)C(F)(F)F)cc2C1 | 200 | 2 |  |
| Cc1cc(C(=O)NCCCCN2CCc3ccc(OS(=O)(=O)C(F)(F)F)cc3C2)ccc1-c1ccccc1 | 1000 | 50.1 |  |
| O=C(/C=C/c1ccc2ncccc2c1)NCCCCN1CCc2ccc(OS(=O)(=O)C(F)(F)F)cc2C1 | 251 | 3.16 |  |
| Cc1nnc(-c2ccc(-c3ccc(C(=O)NCCCCN4CCc5ccc(OS(=O)(=O)C(F)(F)F)cc5C4)cc3)cc2)o1 | 100 | 2 |  |
| O=C(/C=C/c1ccc2nc(O)ccc2c1)NCCCCN1CCc2ccc(OS(=O)(=O)C(F)(F)F)cc2C1 | 158 | 2.51 |  |
| O=C(/C=C/c1c[nH]c2ccccc12)NCCCCN1CCc2ccc(OS(=O)(=O)C(F)(F)F)cc2C1 | 631 | 3.98 | clearance [3]: 27 mL/min/kg; half-life [4]: 2.5 h; pKb [5]: 6.6; pKb [6]: 8.9 |
| CCCN(CCCCNC(=O)c1ccc(-c2ccccc2)cc1)C1CCc2c(Cl)cccc2C1 (stereo unspecified) |  |  | clearance [7]: 80 mL/min/kg |
| CC(=O)c1cccc(/C=C/C(=O)NCCCCN2CCc3ccc(OS(=O)(=O)C(F)(F)F)cc3C2)c1 | 398 | 3.98 |  |
| Cn1c(=O)ccc2cc(/C=C/C(=O)NCCCCN3CCc4ccc(OS(=O)(=O)C(F)(F)F)cc4C3)ccc21 | 316 | 10 |  |
| CC(=O)c1ccc(-c2ccc(C(=O)NCCCCN3CCc4ccc(OS(=O)(=O)C(F)(F)F)cc4C3)cc2)cc1 | 200 | 2.51 |  |
| O=C(/C=C/c1cnc2ccccc2c1)NCCCCN1CCc2ccc(OS(=O)(=O)C(F)(F)F)cc2C1 | 316 | 3.98 |  |
| COc1ccc(/C=C/C(=O)NCCCCN2CCc3ccc(OS(=O)(=O)C(F)(F)F)cc3C2)cc1 | 316 | 3.98 |  |
| COc1cccc(/C=C/C(=O)NCCCCN2CCc3ccc(OS(=O)(=O)C(F)(F)F)cc3C2)c1 | 316 | 3.16 |  |
| O=C(NCCCCN1CCc2ccccc2C1)c1ccc(-c2ccccc2)cc1 | 501 | 25.1 | clearance [7]: 20 mL/min/kg |
| O=C(/C=C/c1ccc2ccccc2n1)NCCCCN1CCc2ccc(OS(=O)(=O)C(F)(F)F)cc2C1 | 398 | 3.98 |  |
| CNC(=O)c1ccc(-c2ccc(C(=O)NCCCCN3CCc4ccc(OS(=O)(=O)C(F)(F)F)cc4C3)cc2)cc1 | 100 | 2.51 |  |
| CC(=O)c1ccc(/C=C/C(=O)NCCCCN2CCc3ccc(OS(=O)(=O)C(F)(F)F)cc3C2)cc1 | 251 | 3.98 |  |
| CN(C)c1ccc(/C=C/C(=O)NCCCCN2CCc3ccc(OS(=O)(=O)C(F)(F)F)cc3C2)cc1 | 501 | 3.98 |  |
| O=C(NCCCCN1CCc2ccc(OS(=O)(=O)C(F)(F)F)cc2C1)c1ccc(-c2ccccc2)cc1 | 501 | 7.94 |  |
| O=C(/C=C/c1ccccc1)NCCCCN1CCc2ccc(OS(=O)(=O)C(F)(F)F)cc2C1 | 316 | 5.01 |  |
| CNC(=O)c1cccc(-c2ccc(C(=O)NCCCCN3CCc4ccc(OS(=O)(=O)C(F)(F)F)cc4C3)cc2)c1 | 126 | 2 |  |
